# Test results as given in patent publication US20240009191A1, “METHOD AND COMPOSITION FOR THE TREATMENT OF DISEASE” (DIMERIX BIOSCIENCE PTY LTD, priority 2019, published 2024).
# Molecular target: T1, AT1R-CXCR2 heteromer (Homo sapiens, UniProt P25025+P30556)
# T1 sequence (P25025 1-360): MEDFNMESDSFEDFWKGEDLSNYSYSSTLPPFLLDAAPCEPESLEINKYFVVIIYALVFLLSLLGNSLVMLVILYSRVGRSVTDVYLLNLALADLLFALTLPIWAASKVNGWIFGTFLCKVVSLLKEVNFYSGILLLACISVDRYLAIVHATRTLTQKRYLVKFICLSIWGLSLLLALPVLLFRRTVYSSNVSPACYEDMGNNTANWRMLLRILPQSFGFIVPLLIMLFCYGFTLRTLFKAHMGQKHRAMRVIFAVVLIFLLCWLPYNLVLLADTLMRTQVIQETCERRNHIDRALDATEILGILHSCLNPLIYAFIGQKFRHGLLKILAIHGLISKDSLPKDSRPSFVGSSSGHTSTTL
# T1 sequence (P30556 1-359): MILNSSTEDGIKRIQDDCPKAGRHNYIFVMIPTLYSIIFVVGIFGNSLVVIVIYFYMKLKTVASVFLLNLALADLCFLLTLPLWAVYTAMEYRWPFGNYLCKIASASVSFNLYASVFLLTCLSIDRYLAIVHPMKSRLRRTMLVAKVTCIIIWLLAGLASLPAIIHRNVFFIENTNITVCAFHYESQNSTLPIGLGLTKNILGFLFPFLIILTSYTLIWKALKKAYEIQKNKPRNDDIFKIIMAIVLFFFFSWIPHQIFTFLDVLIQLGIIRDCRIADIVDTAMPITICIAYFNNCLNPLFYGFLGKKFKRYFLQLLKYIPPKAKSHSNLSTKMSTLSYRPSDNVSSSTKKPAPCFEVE
# Test: BRET trafficking of CXCR2/Rluc8 (Venus/Kras, Rab5, Rab8) with HA-AT1R, pre-treatment with vehicle or antagonists/inverse agonists
# Type: cell-based
# Protocol: HEK293FT cells were seeded in 6-well plates at a density of approximately 700,000 cells/well and maintained at 37° C., 5% CO2 in Complete Media (DMEM containing 0.3 mg/ml glutamine, 100 IU/ml penicillin and 100 μg/ml streptomycin (Gibco/Thermo Fisher)) supplemented with 10% fetal calf serum (FCS; Bovogen). Transient transfections were carried out 24 h after seeding using FuGene6™ (Promega) according to manufacturer instructions. 24 h post-transfection, cells were washed with PBS, detached using 0.05% trypsin/0.53 mM EDTA, resuspended in HEPES-buffered phenol red free Complete Media containing 5% FCS and added to a poly-L-lysine-coated white 96-well microplate (Greiner Bio-One). 48 h post-transfection, bioluminescence resonance energy transfer (BRET) assays were carried out following pre-incubation of cells with EnduRen™ (Promega) at a final concentration of 30 μM, at 37° C., 5% CO2 for 2 h. BRET measurements were taken at 37° C. using the LUMlstar™ or CLARIOstar™ (BMG Labtech).
# For antagonist/inverse agonist assays, cells were pre-incubated with EnduRen for 1.5 hours, followed by the addition of vehicle or antagonists/inverse agonists (10 μM) for another 30 minutes.
# The BRET signal observed between interacting proteins is normalized by subtracting the background BRET ratio. […] In the following examples, the second calculation will be used and the signal is described as ligand-induced BRET′. Furthermore, for data shown in FIGS. 4 to 20, all data points in a given set are corrected relative to the final data point prior to agonist treatment, which is fixed to zero. In keys on FIGS. 7 to 20, “>” means “followed by after 50 minutes”, with agonists added at time zero on the x-axes.
# Prior to agonist treatment (added at 0 minutes), a baseline BRET signal was recorded for each of the combinations for 20 minutes. Data were calculated as ligand-induced BRET relative to the ‘vehicle followed by vehicle’ (veh>veh) data set.
substance,measurement,value
Angiotensin II [AngII],proximity of CXCR2/Rluc8 to Venus/Kras (BRET),increased proximity
same,proximity of CXCR2/Rluc8 to Venus/Rab5 (BRET),very small increase
same,proximity of CXCR2/Rluc8 to Venus/Rab8 (BRET),clear increase
